Test results published in patent publication US8609671B2, “Method of inhibiting hepatic fibrosis as a result of liver replacement or repair using A2B adenosine receptor antagonists” (Gilead Sciences, Inc., priority 2006, dated 2013).
pKi: −log10 of the molar value. “Also recorded” adds a separate entry of the source.

Tests used:
HHSCs [1] = experiment: Measurement of cAMP accumulation in HHSCs; type: cell-based, human; conditions: for effect of agonist on cellular cAMP accumulation: with rolipram 50 μM, 15 min, CGS-21680 (=10 μM); for effect on forskolin-induced cellular cAMP accumulation: agonist 1 μM, forskolin 10 μM
Protocol: (§1) Primary cultured normal human hepatic stellate Cells (HHSCs) were obtained from ScienCell Research Laboratories (San Diego, Calif.) and cultured using stellate cell growth medium (ScienCell Research Laboratories). HHSCs were routinely grown in a humidified incubator with 5% CO2 at 37° C. and reseeded when they reached about 80-90% confluency. Each re-seeding is called a passage. Cells from passages 2 to 5 were used in the following studies.
Cells were harvested using 0.0025% trypsin and 2 mM EDTA in PBS, washed and resuspended in phenol-free DMEM to a concentration of 1×10^6 cells/ml, and then incubated with 1 U/ml of ADA for 30 min at room temperature. Cells were then treated with AdoR agonists, antagonists, and forskolin in the presence of 50 μM of the phosphodiesterase IV inhibitor, rolipram. After incubating for 15 min at 37° C., cells were lysed and cAMP concentrations were determined using cAMP-Screen Direct™ System (Applied Biosystems) according to the manufacturer's instructions.

HHSCs [2] = experiment: IL-6 release by HHSCs (ELISA); type: cell-based, human; design: maximal increase of IL-6 release over the basal level: concentration or dose not given beside the values
Protocol: as §1
(§2) HHSCs were seeded into 12-well tissue culture plates at a density of 1×10^5 cells/well in stellate cell growth medium and allowed to adhere overnight and reach ˜90% confluency. Cells were washed twice in HEPES buffered saline, and cultured in DMEM containing various agonists or antagonists of AdoRs for 1 or 24 h.
(§3) The concentration of IL-6 in the cell medium was determined using ELISA kits obtained from Biosource (Camarillo, Calif.) according to the manufacturer's instructions. The minimal detection levels of IL-6 with these kits were 2 pg/ml. The concentration of soluble collagen in the cell medium was measured using the Sircol collagen assay (Biocolor Ltd., Belfast N. Ireland) according to manufacture's instructions. The activity of AST in mouse plasma was determined using the Infinity™ AST assay (Thermo Electron Corporation, Waltham, Mass.)

HHSCs [3] = experiment: Collagen production by HHSCs (Sircol collagen assay); type: cell-based, human; conditions: 24 h
Protocol: as §2, §3

HHSCs [4] = experiment: mRNA levels of α-smooth muscle actin and α-1 pro-collagen in HHSCs (real-time RT-PCR); type: cell-based, human; conditions: NECA 10 μM, 1 h
Protocol: HHSCs were seeded into 12-well tissue culture plates at a density of 1×10^5 cells/well in stellate cell growth medium and allowed to adhere overnight and reach ˜90% confluency. Cells were washed twice in HEPES buffered saline, and cultured in DMEM containing various agonists or antagonists of AdoRs for 1 or 24 h. Total RNA was extracted from HHSCs using the Stratagene Absolutely RNA™ RT-PCR Miniprep Kit followed by DNase treatment to eliminate potential genomic DNA contamination. Real-time RT-RCR for adenosine receptors was performed as previously described in Zhong et al. (2004) Am J Respir Cell Mol Biol; 30(1):118-125. The specific primers for α-smooth muscle actin used were: while the primers for α-1 pro-collagen were: and each of these primers were designed using Primer Express 2.0 (Applied Biosystems) following the recommended guidelines based on sequences from Genbank. At the end of the PCR cycle, a dissociation curve was generated to ensure the amplification of a single product, and the threshold cycle time (Ct value) for each gene was determined. Relative mRNA levels were calculated based on the Ct values, normalized to β-actin in the same sample, and presented as percentages of β-actin mRNA. Measurement of cAMP Accumulation

[5] = target: T1, Human A1 adenosine receptor (Homo sapiens, UniProt P30542); conditions: read-out: affinity for A1 receptor (Ki); cited from earlier work
T1 sequence (P30542 1-326): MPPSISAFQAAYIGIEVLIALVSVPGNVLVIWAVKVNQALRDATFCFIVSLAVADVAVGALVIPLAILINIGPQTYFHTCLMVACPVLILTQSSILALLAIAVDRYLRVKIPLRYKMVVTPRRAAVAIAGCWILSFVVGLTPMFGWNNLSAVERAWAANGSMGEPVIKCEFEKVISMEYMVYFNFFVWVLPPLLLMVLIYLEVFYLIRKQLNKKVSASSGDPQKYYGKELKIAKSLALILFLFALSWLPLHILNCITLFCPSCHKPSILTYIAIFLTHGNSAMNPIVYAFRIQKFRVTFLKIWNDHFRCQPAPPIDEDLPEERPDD

[6] = target: T2, Human A3 adenosine receptor (Homo sapiens, UniProt P0DMS8); conditions: read-out: affinity for A3 receptor (Ki); cited from earlier work
T2 construct: expressed in transfected cells; host or cells: CHO (CHO-A3), membrane preparation
T2 sequence (P0DMS8 1-318): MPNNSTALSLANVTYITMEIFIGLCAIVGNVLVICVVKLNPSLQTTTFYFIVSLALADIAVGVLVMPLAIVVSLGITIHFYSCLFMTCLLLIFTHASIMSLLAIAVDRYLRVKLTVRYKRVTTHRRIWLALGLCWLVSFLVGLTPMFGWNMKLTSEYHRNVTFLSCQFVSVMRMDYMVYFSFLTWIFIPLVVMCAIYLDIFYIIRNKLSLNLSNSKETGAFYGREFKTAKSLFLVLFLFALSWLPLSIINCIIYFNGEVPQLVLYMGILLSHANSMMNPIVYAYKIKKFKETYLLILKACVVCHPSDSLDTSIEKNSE

[7] = target: T3, Human A2A adenosine receptor (Homo sapiens, UniProt P29274); conditions: read-out: affinity for A2A receptor (Ki); cited from earlier work
T3 construct: expressed in transfected cells; host or cells: HEK-293 (HEK-A2A), membrane preparation
T3 sequence (P29274 whole entry): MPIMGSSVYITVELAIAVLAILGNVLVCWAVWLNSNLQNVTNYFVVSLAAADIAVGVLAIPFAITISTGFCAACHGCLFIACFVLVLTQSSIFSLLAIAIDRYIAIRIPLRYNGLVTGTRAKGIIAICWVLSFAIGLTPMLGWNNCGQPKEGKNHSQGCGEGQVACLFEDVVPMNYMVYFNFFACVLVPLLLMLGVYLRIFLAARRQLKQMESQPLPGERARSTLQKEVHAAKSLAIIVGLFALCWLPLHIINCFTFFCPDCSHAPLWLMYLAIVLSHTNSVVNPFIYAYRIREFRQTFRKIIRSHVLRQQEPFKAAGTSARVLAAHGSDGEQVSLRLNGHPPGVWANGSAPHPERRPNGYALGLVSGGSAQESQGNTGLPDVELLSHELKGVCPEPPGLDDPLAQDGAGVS

ADA^−/− mice = experiment: Plasma AST levels in ADA-deficient mice; type: in vivo; conditions: 1 mg/kg per injection i.p. morning and evening for 17 days, vs vehicle
Protocol: as §3
Adenosine deaminase (ADA)-deficient mice were generated and genotyped as described in Blackburn et al. (1998), J Biol Chem, 273(9):5093-5100. Mice homozygous for the null Ada allele were designated ADA-deficient (ADA^−/−), while mice heterozygous for the null Ada allele were designated as ADA control mice (ADA^+). All mice were on a mixed 129sv/C57BL/6J background and all phenotypic comparisons were performed amongst littermates. Animal care was in accordance with institutional and NIH guidelines. Mice were housed in ventilated cages equipped with microisolator lids and maintained under strict containment protocols. No evidence of bacterial, parasitic, or fungal infection was found, and serologies on cage littermates were negative for 12 of the most common murine viruses. […]

For `CCNC(=O)[C@H]1O[C@@H](n2cnc3c(N)nc(NCCc4ccc(CCC(=O)O)cc4)nc32)[C@H](O)[C@@H]1O` [CGS-21680], the “effect of agonist on cellular cAMP accumulation” value (HHSCs [1]) was “did not cause a significant increase”.

For `OC[C@H]1O[C@@H](n2cnc3c(NC4CCCC4)ncnc32)[C@H](O)[C@@H]1O` [CPA, N6-cyclopentyladenosine], the “effect on forskolin-induced cellular cAMP accumulation” value (HHSCs [1]) was “Lack of effect; also recorded: failed to inhibit”.

With `CNC(=O)[C@H]1O[C@@H](n2cnc3c(NCc4cccc(I)c4)ncnc32)[C@H](O)[C@@H]1O` [IB-MECA] the “effect on forskolin-induced cellular cAMP accumulation” value (HHSCs [1]) was “Lack of effect; also recorded: failed to inhibit”.

For `CCNC(=O)[C@H]1O[C@@H](n2cnc3c(N)ncnc32)[C@H](O)[C@@H]1O` [NECA, 5′-(N-ethylcarboxamido)-adenosine], the “effect of agonist on cellular cAMP accumulation” value (HHSCs [1]) was “increased cellular cAMP accumulation in a concentration-dependent manner”, the “maximal increase of IL-6 release over the basal level” value (HHSCs [2]) was 11.9±3.1 fold and the “effect on IL-6 release” value (HHSCs [2]; 24 h) was “increased IL-6 release in a concentration-dependent manner”. The “increase of IL-6 release compared to vehicle-treated cells” value (HHSCs [2]; NECA 100 μM, 24 h) was 11.9±3.1 fold, the “release of soluble collagen” value (HHSCs [3]) was “increased; also recorded: significant increase” and the “expression of α-1 pro-collagen mRNA” value (HHSCs [4]) was “significantly increased”. The “expression of α-smooth muscle actin mRNA” value (HHSCs [4]) was “significantly increased”.

For `Nc1ncnc2c1ncn2[C@@H]1O[C@H](CO)[C@@H](O)[C@H]1O` [adenosine], the “maximal increase of IL-6 release over the basal level” value (HHSCs [2]) was 11.9±3.1 fold and the “effect on IL-6 release” value (HHSCs [2]; 24 h) was “increased IL-6 release in a concentration-dependent manner”.

In the case of `CCCn1c(=O)[nH]c2nc(-c3cnn(Cc4noc(-c5ccc(Cl)cc5)n4)c3)[nH]c2c1=O` [compound (1), 8-(1-{[5-(4-chlorophenyl)(1,2,4-oxadiazol-3-yl)]methyl}pyrazol-4-yl)-1-propyl-1,3,7-trihydropurine-2,6-dione], the “effect on NECA-induced cellular cAMP accumulation” value (HHSCs [1]; antagonist 1 μM) is given as “significantly attenuated”, the “reduction of NECA-increased IL-6 release” value (HHSCs [2]; compound 1 μM together with NECA 10 μM) is given as 90.7±0.1% and the pKi [5] is given as under 5.30. For the same molecule, the “effect on NECA-induced collagen production” value (HHSCs [3]; NECA 10 μM) was “abolished”, the pKi [6] was under 5.30 and the pKi [7] was under 5.30.

For `CCCn1c(=O)c2[nH]c(-c3cnn(Cc4cccc(C(F)(F)F)c4)c3)nc2n(CC)c1=O` [compound (2), 3-ethyl-1-propyl-8-(1-{[3-(trifluoromethyl)phenyl]methyl}pyrazol-4-yl)-1,3,7-trihydropurine-2,6-dione], the “plasma AST levels” value (ADA^−/− mice) was “significant reduction”.
